Tests used:
Test in all cases: Cell viability assay (ATP quantitation)
[1] = system: MM415 melanoma cell line; assay type: cell-based, human; details: 50 nM, 5 days (120 hrs), vs non-targeting control
Summary of the method: (§1)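 Cells (0.7-2×10^^3 per well, by doubling time) were transfected one day after seeding with esiRNA, siRNA or ASO GapmeRs at 50 nM final unless stated, using Lipofectamine 3000, with or without MEKi. Total luminescence was read 3 days (synergy) or 5 days (ASO alone) after transfection.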

[2] = system: D04 melanoma cell line; assay type: cell-based, human; details: 50 nM, 5 days (120 hrs), vs non-targeting control
Summary of the method: as §1

[3] = system: WM3629 melanoma cell line; assay type: cell-based, human; details: 50 nM, 5 days (120 hrs), vs non-targeting control
Summary of the method: as §1

[4] = system: WM1366 melanoma cell line; assay type: cell-based, human; details: 50 nM, 5 days (120 hrs), vs non-targeting control
Summary of the method: as §1

[5] = system: Hs852.T primary melanoma cell line; assay type: cell-based, human; details: 50 nM, 5 days (120 hrs), vs non-targeting control
Summary of the method: as §1

[6] = system: Sk-Mel-28 melanoma cell line; assay type: cell-based, human; details: 50 nM, 5 days (120 hrs), vs non-targeting control
Summary of the method: as §1

[7] = system: Sk-Mel-2 melanoma cell line; assay type: cell-based, human; details: 50 nM, 5 days (120 hrs), vs non-targeting control
Summary of the method: as §1

[8] = system: VMM39 melanoma cell line; assay type: cell-based, human; details: 50 nM, 5 days (120 hrs), vs non-targeting control
Summary of the method: as §1

[9] = system: WM3211 melanoma cell line; assay type: cell-based, human; details: 50 nM, 5 days (120 hrs), vs non-targeting control
Summary of the method: as §1

[10] = system: AV5 primary melanoma cell line; assay type: cell-based, human; details: 50 nM, 5 days (120 hrs), vs non-targeting control
Summary of the method: as §1

[11] = system: WM3629RM trametinib resistant melanoma cell line; assay type: cell-based; details: 50 nM, 5 days, vs non-targeting control
From the text: (§2) Human melanoma cell line VMM39 was purchased from American Type Culture Collection (ATCC). Human melanoma cell lines D04, MM415, WM1366, WM3629, WM3211, Sk-Mel-2 and Sk-Mel-28 were a generous gift from Boris Bastian at the University of California, San Francisco. Primary human melanoma cell line Hs852.T was purchased from the Cell Culture Core Facility (CCCF) at the University of California, San Francisco. Primary human melanoma cell line AV5 was obtained from metastasis of a melanoma patient. All experimental protocols were approved by UCSF Human Research Protection Program Institutional Review Board (IRB #12-0948), all patients signed informed consent, and methods were carried out in accordance with relevant guidelines and regulations. Resistant cell lines DO4RM, MM415RM, Sk-Mel-2RM and WM3629RM were established as previously described. [Sanlorenzo, M. et al., The lincRNA MIRAT binds to IQGAPI and modulates the MAPK pathway in NRAS mutant melanoma. Sci Rep 8, 10902 (2018).] Primary human melanocytic cell lines (PHM) from infant foreskin of five healthy donors were available in our cell repository and pooled. Melanoma cell lines were maintained in RPMI 1640 media supplemented with 10% (vol/vol) heat inactivated fetal bovine serum. Melanocytes were maintained in M254 medium with HMGS supplements (1× final solution). All cell lines were incubated at 37° C. under 5% CO2.
(§3) EsiRNA, siRNA and ASO GapmeRs were transfected in a final concentration of 50 nM unless mentioned otherwise and the transfection reagent Lipofectamine 3000 (2 ul/ml) was added according to the manufacturer's instructions.
(§4) Dependent on cell doubling time, 0.7-2×10^^3 cells were seeded in 96 well plates. 1 day after seeding cells were incubated in media with oligonucleotide concentration and/or MEKi and transfection reagent. 3 (synergy experiments) or 5 (solely ASO) days after transfection Total luminescence was measured on the SynergyHT plate reader (BioTek) using Gen5 software.

[12] = system: D04RM trametinib resistant melanoma cell line; assay type: cell-based; details: 50 nM, 5 days, vs non-targeting control
From the text: as §2, §3, §4

[13] = system: Sk-Mel-2-RM trametinib resistant melanoma cell line; assay type: cell-based; details: 50 nM, 5 days, vs non-targeting control
From the text: as §2, §3, §4

[14] = system: MM415RM trametinib resistant melanoma cell line; assay type: cell-based; details: 50 nM, 5 days, vs non-targeting control
From the text: as §2, §3, §4

[15] = system: AV4 melanoma cell line; assay type: cell-based; details: 50 nM, 5 days, vs non-targeting control
Experimental: as §3, §4

[16] = system: SW480 colon carcinoma cell line; assay type: cell-based; details: 50 nM, 5 days, vs non-targeting control
Experimental: as §3, §4

[17] = system: HCT116 colon carcinoma cell line; assay type: cell-based; details: 50 nM, 5 days, vs non-targeting control
Experimental: as §3, §4

[18] = system: Hs940.T melanoma cell line; assay type: cell-based; details: 50 nM, 5 days, vs non-targeting control
Experimental: as §3, §4

[19] = system: U87-MG Glioblastoma cell line; assay type: cell-based; details: 50 nM, 5 days, vs non-targeting control
Experimental: as §3, §4

[20] = system: H2228 lung cancer cell line; assay type: cell-based; details: 50 nM, 5 days, vs non-targeting control
Experimental: as §3, §4

[21] = system: T98G Glioblastoma cell line; assay type: cell-based; details: 50 nM, 5 days, vs non-targeting control
Experimental: as §3, §4

[22] = system: SW1271 lung cancer cell line; assay type: cell-based; details: 50 nM, 5 days, vs non-targeting control
Experimental: as §3, §4

[23] = system: H929 multiple myeloma cell line; assay type: cell-based; details: 50 nM, 5 days, vs non-targeting control
Experimental: as §3, §4

[24] = system: Sk-Mel-5 melanoma cell line; assay type: cell-based; details: 50 nM, 5 days, vs non-targeting control
Experimental: as §3, §4

[25] = system: H1299 lung cancer cell line; assay type: cell-based; details: 50 nM, 5 days, vs non-targeting control
Experimental: as §3, §4

[26] = system: U20S osteosarcoma cell line; assay type: cell-based; details: 50 nM, 5 days, vs non-targeting control
Experimental: as §3, §4

[27] = system: A-172 Glioblastoma cell line; assay type: cell-based; details: 50 nM, 5 days, vs non-targeting control
Experimental: as §3, §4

[28] = system: A375 melanoma cell line; assay type: cell-based; details: 50 nM, 5 days, vs non-targeting control
Experimental: as §3, §4

[29] = system: MM485 melanoma cell line; assay type: cell-based; details: 50 nM, 5 days, vs non-targeting control
Experimental: as §3, §4

[30] = system: WM3060 melanoma cell line; assay type: cell-based; details: 50 nM, 5 days, vs non-targeting control
Experimental: as §3, §4

[31] = system: H82 lung cancer cell line; assay type: cell-based; details: 50 nM, 5 days, vs non-targeting control
Experimental: as §3, §4

[32] = system: U138-MG Glioblastoma cell line; assay type: cell-based; details: 50 nM, 5 days, vs non-targeting control
Experimental: as §3, §4

[33] = system: Sk-N-AS Neuroblastoma cell line; assay type: cell-based; details: 50 nM, 5 days, vs non-targeting control
Experimental: as §3, §4

[34] = system: L363 multiple myeloma cell line; assay type: cell-based; details: 50 nM, 5 days, vs non-targeting control
Experimental: as §3, §4

[35] = system: XG-1 multiple myeloma cell line; assay type: cell-based; details: 50 nM, 5 days, vs non-targeting control
Experimental: as §3, §4

[36] = system: MaMel30 melanoma cell line; assay type: cell-based; details: 50 nM, 5 days, vs non-targeting control
Experimental: as §3, §4

[37] = system: AV1 melanoma cell line; assay type: cell-based; details: 50 nM, 5 days, vs non-targeting control
Experimental: as §3, §4

Measured: cell viability decrease

AAGGAGGGTAAACGCT (chemistry not given here) [SEQ ID NO: 13, Antisense oligonucleotide targeting BX470102.3-008]
not listed: [34] | [35] | [36] | [37]
significant cell viability decrease: all other assays above

ACATGGATTGGTAGTG (QIAGEN GapmeR, modification pattern not given here) [SEQ ID NO: 17, Antisense oligonucleotide targeting RP11-7011.3-001, 002 and 003]
not listed: [18] | [25] | [28] | [29]
significant cell viability decrease: all other assays above

From patent US20250197864A1, “LNCRNA TRANSCRIPTS IN MELANOMAGENESIS” (The Regents of the University of California, priority 2021, published 2025)
